Assay results as given in patent US20130109693A1, “DERIVATIVES OF PYRIDO [3,2-D] PYRIMIDINE, METHODS FOR PREPARATION THEREOF AND THERAPEUTIC USES THEREOF” (UNIVERSITE D'ORLEANS, priority 2010, published 2013).
pIC50: −log10 of the molar value.

Columns and labels:
[1] = tested on: HCT 116; assay: Cytotoxicity on human cells, HCT 116 (colon); assay type: cell-based; details: exposed 24 h and 48 h, 0.1 to 25 μM
Protocol: (§1) […] Dosages on Human cells (Huh7, Caco, MDA-MB 231, HCT 116, PC3, NCl, Fibroblast)
(§2) Cytotoxicity: This method is based on an automated imaging analysis. 4.10^3 cells were cultivated on 96-well plates and thus left for 24 hours so that they may bind, be distributed and proliferate.
(§3) These cells were then exposed for 24 h and 48 h to increasing concentrations of the compounds of the invention, from 0.1 to 25 μM in a final volume of 80 μL of culture medium. The cells are then set with a 4% paraformaldehyde solution and the nuclei are colored with Hoechst 3342 and counted according to automated imaging quantification.
(§4) All the cell lines were cultivated in a DMEM or RPMI (Invitrogen) medium. All these media were completed with antibiotics (penicillin-streptomycin)(Lonza) and 10% by volume of foetal calf serum (Invitrogen). The cells were cultivated at 37° C. with 5% of CO2. The treatments with the molecules to be tested were carried out with increasing concentrations. […] The control experiments were also conducted by using suitable dilutions of DMSO (maximum 1% DMSO). Cell viability was determined by measuring the reduction of MTS as described in the article of Ribas J, Boix J. (2004). Cell differentiation caspase inhibition and macromolecular synthesis blockage but not BCL-2 or BCL-XL proteins protect SH-SY5Y cells from apoptosis triggered by two CDK inhibitory drugs. Exp. Cell Res., 295: 9-24.

[2] = tested on: MDA-MB 231; assay: Cytotoxicity on human cells, MDA-MB 231 (breast); assay type: cell-based; details: MDA-MB-231, human cells, exposed 24 h and 48 h, 0.1 to 25 μM
Protocol: as §1, §2, §3, §4

[3] = molecular target: DYRK1A (Homo sapiens, UniProt Q13627); assay: DYRK1A kinase inhibition (Woodtide substrate, buffer A); assay type: biochemical; details: 15 μM ATP, 30° C., recombinant GST fusion; read-out: IC50 Kinases DYRK1A
Protocol: (§5) The activities for inhibiting protein kinases of the compounds of the invention are tested according to the following general procedure:
(§6) Buffer A: 10 mM MgCl2, 1 mM EGTA, 1 mM DTT, 25 mM Tris-HCl pH 7.5 and 50 μg heparin/mL.
(§7) The kinase activities are dosed in buffers A or C, at 30° C., at a final concentration of ATP of 15 μM. The values of the blanks were subtracted and the activities are expressed as a % of the maximum activity, i.e. in the absence of inhibitors. The controls were carried out with suitable dilutions of DMSO.

[4] = molecular target: GSK-3αβ; assay: GSK-3αβ kinase inhibition (GS-1 substrate, buffer A); assay type: biochemical; details: 15 μM ATP, 30° C., native, pig brain; read-out: IC50 Kinases GSK3
Protocol: as §5, §6, §7
GSK-3αβ (from pig brain, native) was assayed by using a specific substrate of GSK-3 (GS-1: […]pEDEEE)(Sp represents a phosphorylated serine) (Primot, A., Baratte, B., Gompel, M., Borgne, A., Liabeuf, S., Romette, J. L., Costantini, F. and Meijer, L., 2000. Purification of GSK-3 by affinity chromatography on immobilized axin. Protein Expr. & Purif. 20 (3), 394-404). GS-1 was synthesized by Millegen (Labège, France). Its kinase activity was analyzed in the buffer A, with 1 mg of histone H1/mL, in the presence of 15 μM of [γ-^33P] ATP (3,000 Ci/mmol; 10 mCi/mL) in a final volume of 30 μl. After 30 mins of incubation at 30° C., 25 μl of supernatant aliquots were deposited on 2.5×3 cm pieces of phosphocellulose Whatman P81papier, and after 20 seconds, the filters were washed five times (for at least 5 minutes every time) in a solution of 10 mL of phosphoric acid/liter of water. The wet filters were counted in the presence of 1 mL of ACS scintillator fluid (Amersham).

[5] = tested on: Caco; assay: Cytotoxicity on human cells, Caco (colon); assay type: cell-based; details: exposed 24 h and 48 h, 0.1 to 25 μM
Protocol: as §1, §2, §3, §4

[6] = tested on: PC3; assay: Cytotoxicity on human cells, PC3 (prostate); assay type: cell-based; details: PC-3, human cells, exposed 24 h and 48 h, 0.1 to 25 μM
Protocol: as §1, §2, §3, §4

[7] = tested on: fibroblast; assay: Cytotoxicity on human cells, fibroblast; assay type: cell-based; details: exposed 24 h and 48 h, 0.1 to 25 μM
Protocol: as §1, §2, §3, §4

[8] = molecular target: T1, CDK5 (Homo sapiens, UniProt Q00535); assay: CDK5 kinase inhibition (histone H1, [γ-33P] ATP, buffer C); assay type: biochemical; details: 15 μM ATP, 30° C., recombinant; read-out: IC50 Kinases CDK5
T1 construct: made in house
T1 sequence (Q00535 whole entry): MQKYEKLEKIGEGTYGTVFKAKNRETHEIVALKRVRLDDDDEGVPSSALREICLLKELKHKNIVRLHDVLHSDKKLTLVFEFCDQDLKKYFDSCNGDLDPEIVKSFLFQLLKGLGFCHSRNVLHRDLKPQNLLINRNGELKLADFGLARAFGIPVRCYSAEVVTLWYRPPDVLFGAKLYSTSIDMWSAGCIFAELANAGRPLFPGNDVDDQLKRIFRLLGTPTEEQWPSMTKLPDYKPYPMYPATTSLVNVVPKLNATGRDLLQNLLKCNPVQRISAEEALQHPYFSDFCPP
T1 sequence (Q15078 99-307 partner limits assumed): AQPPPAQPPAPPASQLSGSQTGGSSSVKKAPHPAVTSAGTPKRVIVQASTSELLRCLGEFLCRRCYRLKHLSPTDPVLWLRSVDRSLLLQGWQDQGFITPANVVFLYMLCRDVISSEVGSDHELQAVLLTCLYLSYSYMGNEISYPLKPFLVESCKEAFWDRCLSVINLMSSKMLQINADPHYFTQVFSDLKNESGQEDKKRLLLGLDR
Protocol: as §5
Buffer C: 60 mM β-glycerophosphate, 15 mM p-nitrophenyl-phosphate, 25 mM Mops (pH 7.2), 5 mM EGTA, 15 mM MgCl2, 1 mM DTT, 1 mM of sodium vanadate
as §7
CDK5 (humane, recombinant) was prepared as described earlier (Leclerc, S.; Garnier, M.; Hoessel, R.; Marko, D.; Bibb, J. A.; Snyder, G. L.; Greengard, P.; Biernat, J.; Mandelkow, E.-M.; Eisenbrand, G.; Meijer, L. Indirubins inhibit glycogen synthase kinase-3β and CDK5/p25, two kinases involved in abnormal tau phosphorylation in Alzheimer's disease—A property common to most CDK inhibitors? J. Biol. Chem. 2001, 276, 251-260; Bach S, Knockaert M, Reinhardt J, Lozach O, Schmitt S, Baratte B et al. (2005). Roscovitine targets, protein kinases and pyridoxal kinase. J. Biol Chem 280: 31208-31219). Its kinase activity was analyzed in the buffer C, with 1 mg of histone H1/mL, in the presence of 15 μM of [γ-^33P] ATP (3,000 Ci/mmol; 10 mCi/mL) in a final volume of 30 μl. After 30 mins of incubation at 30° C., 25 μl of supernatant aliquots were deposited on 2.5×3 cm pieces of phosphocellulose Whatman P81 paper, and after 20 seconds, the filters were washed five times (for at least 5 minutes every time) in a solution of 10 mL phosphoric acid/liter of water. The wet filters were counted in the presence of 1 mL of ACS scintillator fluid (Amersham).

[9] = tested on: Huh7; assay: Cytotoxicity on human cells, Huh7 (liver); assay type: cell-based; details: Huh-7, human cells, exposed 24 h and 48 h, 0.1 to 25 μM
Protocol: as §1, §2, §3, §4

[10] = tested on: NCI; assay: Cytotoxicity on human cells, NCI (lung); assay type: cell-based; details: exposed 24 h and 48 h, 0.1 to 25 μM
Protocol: as §1, §2, §3, §4

| pIC50 [3] | pIC50 [4] | pIC50 [8] | melting point [°C] | Compound | pIC50 [1] | pIC50 [2] | pIC50 [5] | pIC50 [6] | pIC50 [7] | pIC50 [9] | pIC50 [10] |
| --- | --- | --- | --- | --- | --- | --- | --- | --- | --- | --- | --- |
| < 5.00 | < 5.00 | < 5.00 | > 268 | Cc1csc(Nc2cnc3cnc(-c4ccc(O)cc4)nc3c2)n1 [Compound 50, 2-(4-Hydroxyphenyl)-7-(2-(4-methyl)thiazolamino)-pyrido[3,2-d]pyrimidine] | < 4.60 | 4.60 | < 4.60 | < 4.60 | < 4.60 | 5.00 | 4.60 |
| < 5.00 | 5.14 | 5.74 | 134 to 136 | COc1ccc(Nc2cnc3cnc(-c4ccc(O)cc4)nc3c2)cc1 [Compound 51, 2-(4-Hydroxyphenyl)-7-(4-methoxyphenylamino)-pyrido[3,2-d]pyrimidine] | 4.82 | 4.82 | 4.92 | 5.70 | 5.00 | 4.82 | 5.00 |
| < 5.00 | < 5.00 | 5.12 | > 268 | Oc1ccc(-c2ncc3ncc(Nc4ncccn4)cc3n2)cc1 [Compound 52, 2-(4-Hydroxyphenyl)-7-(2-pyrimidinylamino)-pyrido[3,2-d]pyrimidine] | 5.70 | 5.60 | 5.30 | 5.82 | 5.70 | 4.60 | 5.82 |
| < 5.00 | < 5.00 | < 5.00 | 186 to 188 | Cc1ncccc1Nc1cnc2cnc(-c3ccc(O)cc3)nc2c1 [Compound 53, 2-(4-Hydroxyphenyl)-7-(3-(2-methyl)-pyridinylamino)-pyrido[3,2-d]pyrimidine] | < 4.60 | 5.05 | 4.82 | 5.22 | 5.00 | 4.92 | 4.82 |
| < 5.00 | 5.26 | 5.40 | > 268 | N#Cc1ccc(Nc2cnc3cnc(-c4ccc(O)cc4)nc3c2)nc1 [Compound 54, 2-(4-Hydroxyphenyl)-7-(2-(5-cyano)pyridinylamino)-pyrido[3,2-d]pyrimidine] | < 4.60 | 4.92 | < 4.60 | < 4.60 | < 4.60 | < 4.60 | 4.70 |
| < 5.00 | < 5.00 | 5.96 | 232 to 234 | Oc1ccc(Nc2ncc3ncc(Cl)cc3n2)cc1 [Compound 59, 7-Chloro-2-(4-hydroxyphenylamino)-pyrido[3,2-d]pyrimidine] | 5.70 | 5.22 | < 4.60 | 4.92 | 5.30 | 4.92 | 5.00 |
| < 5.00 | < 5.00 | 5.43 | 262 to 264 | Oc1ccc(Nc2ncc3ncc(-c4ccccc4O)cc3n2)cc1 [Compound 60, 2-(4-Hydroxyphenylamino)-7-(2-hydroxyphenyl)-pyrido[3,2-d]pyrimidine] | 5.10 | 5.00 | 5.40 | 4.70 | 5.30 | 5.22 | 5.30 |
| < 5.00 | 5.35 | 6.15 | > 268 | Oc1ccc(Nc2ncc3ncc(-c4cccc(O)c4)cc3n2)cc1 [Compound 61, 2-(4-Hydroxyphenylamino)-7-(3-hydroxyphenyl)-pyrido[3,2-d]pyrimidine] | 4.92 | 5.05 | 4.92 | 5.15 | 5.70 | 5.00 | 5.40 |
| < 5.00 | 5.15 | 6.08 | > 268 | Oc1ccc(Nc2ncc3ncc(-c4ccc(O)cc4)cc3n2)cc1 [Compound 62, 2-(4-Hydroxyphenylamino)-7-(4-hydroxyphenyl)-pyrido[3,2-d]pyrimidine] | 4.92 | 5.00 | 4.82 | 4.82 | 5.30 | 4.92 | 5.40 |
| < 5.00 | < 5.00 | < 5.00 | 149 to 150 | COc1ccc(Nc2cnc3c(NCc4ccccc4)nc(NCCO)nc3c2)cc1OC [Compound 85, 4-Benzylamino-7-(3,4-dimethoxyphenylamino)-2-(2-hydroxyethylamino)-pyrido[3,2-d]pyrimidine] | 5.40 | 4.82 | 5.40 | 5.40 | 5.30 | 5.82 | 5.70 |
| < 5.00 | < 5.00 | < 5.00 | 125 to 126 | CC(=O)c1ccc(Nc2cnc3c(NCc4ccccc4)nc(NCCO)nc3c2)cc1 [Compound 86, 4-Benzylamino-7-(4-acetylphenylamino)-2-(2-hydroxyethylamino)-pyrido[3,2-d]pyrimidine] | 6.00 | 4.82 | 5.52 | 5.52 | 5.30 | 5.70 | 5.70 |
